Experimental data: BindingDB's records for doi:10.1016/j.bmc.2016.12.017 (Sunshine Lake Pharma, 2017)
pEC50: −log10 of the molar value.

Assay: Inhibition of hepatitis B virus capsid assembly infected in human HepG2.215 cells assessed as reduction in viral DNA replication measured on day 7 by real time PCR analysis

Row | SMILES | pEC50
1 | CCOC(=O)C1=C(CN2CCOCC2)NC(c2nccn2C)=NC1c1ccc(F)cc1Br (configuration not stated) | 7.70
2 | CCOC(=O)C1=C(CN2CCOCC2)NC(c2nccs2)=NC1c1ccc(F)cc1F (configuration not stated) | 7.59
3 | CCOC(=O)C1=C(CN2CC[S+]([O-])CC2)NC(c2nccs2)=NC1c1ccc(F)cc1Cl (configuration not stated) | 7.00
4 | CCOC(=O)C1=C(CN2CCCCC2)NC(c2nccs2)=NC1c1ccc(F)cc1Cl (configuration not stated) | 5.46
5 | CCOC(=O)C1=C(COCCOC)NC(c2nccs2)=NC1c1ccc(F)cc1Cl (configuration not stated) | 6.70
6 | CCOC(=O)C1=C(CO)NC(c2nccs2)=NC1c1ccc(F)cc1Cl (configuration not stated) | < 4.79
7 | CCOC(=O)C1=C(CN2CCOCC2)NC(c2nnc(C)s2)=NC1c1ccc(F)cc1Br (configuration not stated) | < 4.79
8 | CCOC(=O)C1=C(CN2CCOCC2)NC(c2nccs2)=NC1c1ccc(F)cc1-c1ccc(OC)cc1 (configuration not stated) | < 4.79
9 | CCOC(=O)C1=C(CN2CCOCC2)NC(c2nccs2)=NC1c1ccc(F)cc1-c1ccc(C(F)(F)F)cc1 (configuration not stated) | < 4.79
10 | CCOC(=O)C1=C(CN2CCOCC2)NC(c2nccs2)=NC1c1ccccc1F (configuration not stated) | 7.13
11 | CCOC(=O)C1=C(CN2CCOCC2)NC(c2nccs2)=NC1c1ccccc1Br (configuration not stated) | 8.00
12 | CCOC(=O)C1=C(CN2CCS(=O)(=O)CC2)NC(c2nccs2)=NC1c1ccc(F)cc1Cl (configuration not stated) | 7.10
13 | CCOC(=O)C1=C(CN2CCSCC2)NC(c2nccs2)=NC1c1ccc(F)cc1Cl (configuration not stated) | 6.60
14 | CCOC(=O)C1=C(CN2CCNCC2)NC(c2nccs2)=NC1c1ccc(F)cc1Cl (configuration not stated) | < 4.79
15 | CCOC(=O)C1=C(CNCCO)NC(c2nccs2)=NC1c1ccc(F)cc1Cl (configuration not stated) | 6.05
16 | CCOC(=O)C1=C(CN)NC(c2nccs2)=NC1c1ccc(F)cc1Cl (configuration not stated) | 5.29
17 | CCCOCC1=C(C(=O)OCC)C(c2ccc(F)cc2Cl)N=C(c2nccs2)N1 (configuration not stated) | 5.92
18 | CCOCC1=C(C(=O)OCC)C(c2ccc(F)cc2Cl)N=C(c2nccs2)N1 (configuration not stated) | 6.10
19 | CCOC(=O)C1=C(COC)NC(c2nccs2)=NC1c1ccc(F)cc1Cl (configuration not stated) | < 4.79

Row | SMILES | pEC50
20 | CC1=C(C(=O)NN)C(c2ccc(F)cc2Cl)N=C(c2nccs2)N1 (configuration not stated) | < 4.79
21 | CNC(=O)C1=C(C)NC(c2nccs2)=NC1c1ccc(F)cc1Cl (configuration not stated) | < 4.79
22 | CC1=C(C(N)=O)C(c2ccc(F)cc2Cl)N=C(c2nccs2)N1 (configuration not stated) | < 4.79
23 | CC1=C(C(=O)O)C(c2ccc(F)cc2Cl)N=C(c2nccs2)N1 (configuration not stated) | < 4.79
24 | CC1=C(C(=O)OC(C)(C)C)C(c2ccc(F)cc2Cl)N=C(c2nccs2)N1 (configuration not stated) | < 4.79
25 | CC1=C(C(=O)OC(C)C)C(c2ccc(F)cc2Cl)N=C(c2nccs2)N1 (configuration not stated) | < 4.79
26 | CCOC(=O)C1=C(C)NC(c2nccs2)=NC1c1ccc(F)cc1Cl (configuration not stated) | 6.82
27 | COC(=O)C1=C(C)NC(c2nccs2)=NC1c1ccc(F)cc1Cl (configuration not stated) | 6.60
28 | COC(=O)C1=C(C)NC(c2nccs2)=N[C@H]1c1ccc(F)cc1Cl | 7.00
29 | CCOC(=O)C1=C(CN2CCOCC2)NC(n2nnc(C)n2)=NC1c1ccc(F)cc1Br (configuration not stated) | < 4.79
30 | CCOC(=O)C1=C(CN2CCOCC2)NC(n2cnnn2)=NC1c1ccc(F)cc1Br (configuration not stated) | < 4.79
31 | CCOC(=O)C1=C(CN2CCOCC2)NC(c2ncn(C)n2)=NC1c1ccc(F)cc1Br (configuration not stated) | 5.37
32 | CCOC(=O)C1=C(CN2CCOCC2)NC(c2ncc(F)cc2F)=NC1c1ccc(F)cc1Br (configuration not stated) | 8.22
33 | CCOC(=O)C1=C(CN2CCOCC2)N(C)C(c2nccs2)=NC1c1ccc(F)cc1Cl (configuration not stated) | < 4.79
34 | Nc1ncnc2c1ncn2CCOCP(=O)(O)O [9-[2-phosphonomethoxyethyl]adenine] | 7.08
35 | Cc1cn([C@@H]2C[C@@H](O)[C@H](CO)O2)c(=O)[nH]c1=O [CHEBI:63624] | 6.09
36 | C[C@H](Cn1cnc2c(N)ncnc21)OCP(=O)(O)O [CHEBI:63625] | 6.62
37 | C=C1[C@H](CO)[C@@H](O)C[C@@H]1n1cnc2c(=O)[nH]c(N)nc21 [CHEBI:473990] | 9.62
